The values below come from patent US20230331691A1, “TREPROSTINIL DERIVATIVE COMPOUNDS AND METHODS OF USING SAME” (CORSAIR PHARMA, INC., priority 2013, published 2023).

Data set [1] can be described thus: Human liver microsomal stability assay (Test 1). In kind it is in vitro ADME. Conditions: human liver microsomes, 0.5 uM test compound, 37° C., up to 45 minutes, pH 7.4, NADPH generating system; read-out: Test 1 T½. How it is done: (§1) (Test 1) Human liver microsomal stability assay was conducted by incubating 0.5 uM test compounds at 37° C. for up to 45 minutes in 50 mM of potassium phosphate buffer (pH 7.4) containing 0.5 mg of microsomal protein and 50 µL of NADPH generating system (7.8 mg of glucose 6-phosphate, 1.7 mg of NADPH and 6 U of glucose 6-phosphate dehydrogenase per mL in 2% w/v of sodium bicarbonate). At 0, 5, 15, 30 and 45 min., an aliquot was taken, quenched with internal standard containing stop solution. No co-factor controls at 45 minutes were also prepared. After incubation, the samples were analyzed by LC-MS/MS. Peak area ratios of analyte to internal standard were used to calculate the intrinsic clearance. The intrinsic clearance (CLint) was determined from the first order elimination constant by non-linear regression. Formation of the active drug Compound A over the time course was also monitored by LC-MS/MS analysis.
In general terms: Liver microsomes are a subcellular fraction often used to study metabolism.

Data set [2] in a line: Human plasma stability assay (Test 2). Format: in vitro ADME. Conditions: heparinated human plasma, 0.5 uM test compound, 37° C., up to 120 minutes; read-out: Test 2 T½. The protocol:
(Test 2) Human plasma stability assay was conducted by incubating 0.5 uM test compounds at 37° C. for up to 120 minutes in heparinated human plasma. At 0, 5, 15, 30, 60 and 120 […] min., an aliquot was taken, quenched with internal standard containing stop solution. After incubation, the samples were analyzed by LC-MS/MS. Peak area ratios of analyte to internal standard were used to calculate the half-life. Formation of the active drug Compound A over the time course was also monitored by LC-MS/MS analysis.

A short description of data set [3]: Human hepatocyte stability assay (Test 4). In kind it is in vitro ADME. Conditions: cryopreserved human hepatocytes; human hepatocytes 0.5 million cells/mL, 0.5 uM test compound, 37° C., up to 240 minutes; read-out: Test 4 T½. The protocol:
(Test 4) Human hepatocyte stability assay was conducted by incubating 0.5 uM test compound at 37° C. for up to 240 minutes. Cryopreserved human hepatocytes were obtained from Celsis IVT ( Baltimore, Maryland). Cells were thawed according to vendor’s instructions and were suspended in William’s Medium E to 0.5 million cells/mL. Test compounds were spiked into the cell suspension to initiate the reactions. At 0, 10, 30, 60, 120 and 240 min., an aliquot was taken, quenched with internal standard containing stop solution. After incubation, the samples were analyzed by LC-MS/MS. Peak area ratios of analyte to internal standard were used to calculate the intrinsic clearance. The intrinsic clearance (CLint) was determined from the first order elimination constant by non-linear regression. Formation of the active drug Compound A over the time course was also monitored by LC-MS/MS analysis.

The nature of data set [4]: Human skin homogenate stability assay (Test 3). Format: in vitro ADME. Conditions: 0.5 uM test compound, 37° C., up to 45 minutes, pH 7.4, NADPH generating system, read-out: Test 3 T½. The protocol:
as §1, with “3)” for “1)”, “skin homogenate” for “liver microsomal”, “conducted in a similar way as the human liver microsomal stability assay,” for “conducted”, “human skin homogenate” for “microsomal”

For data set [5] the following is noted: treprostinil as the free acid, cited from earlier work.

With `CCCCC[C@H](O)CC[C@@H]1[C@H]2Cc3cccc(OCC(=O)NCC4CC4)c3C[C@H]2C[C@H]1O` [Compound 2, N-Cyclopropylmethyl-2-[2-hydroxy-1-(3-hydroxy-octyl)-2,3,3a,4,9,9a-hexahydro-1H-cyclopenta[b]naphthalen-5-yloxy]-acetamide], the results for the half-life at 0.5 uM in data set [1], in data set [2] and in data set [3] were below 15 min, above 60 min and 31 to 60 min, respectively.

Take `CCCCC[C@H](O)CC[C@@H]1[C@H]2Cc3cccc(OCC(=O)NCCO)c3C[C@H]2C[C@H]1O` [Compound 7, N-(2-Hydroxy-ethyl)-2-[2-hydroxy-1-(3-hydroxy-octyl)-2,3,3a,4,9,9a-hexahydro-1H-cyclopenta[b]naphthalen-5-yloxy]-acetamide]: the half-life at 0.5 uM is 15 to 30 min in data set [1], above 60 min in data set [2] and 15 to 30 min in data set [3].

As to `CCCCC[C@H](O)CC[C@@H]1[C@H]2Cc3cccc(OCC(=O)N(C)CC(=O)OC)c3C[C@H]2C[C@H]1O` [Compound 13, ({2-[2-Hydroxy-1-(3-hydroxy-octyl)-2,3,3a,4,9,9a-hexahydro-1H-cyclopenta[b]naphthalen-5-yloxy]-acetyl}-methyl-amino)-acetic acid methyl ester], the half-life at 0.5 uM in data set [1] was below 15 min; in data set [2], above 60 min; in data set [3], below 15 min.

Take `CCCCC[C@H](O)CC[C@@H]1[C@H]2Cc3cccc(OCC(=O)NCC(F)(F)F)c3C[C@H]2C[C@H]1O` [Compound 14, 2-[2-Hydroxy-1-(3-hydroxy-octyl)-2,3,3a,4,9,9a-hexahydro-1H-cyclopenta[b]naphthalen-5-yloxy]-N-(2,2,2-trifluoro-ethyl)-acetamide]: the half-life at 0.5 uM is below 15 min in data set [1], above 60 min in data set [2], above 60 min in data set [4] and below 15 min in data set [3].

For the compound `CCCCC[C@H](O)CC[C@@H]1[C@H]2Cc3cccc(OCC(=O)O)c3C[C@H]2C[C@H]1O` [treprostinil], the absolute oral bioavailability result in data set [5] (oral) is “less than 10%”. Besides, the systemic half life result in data set [5] (due to significant metabolism) is “very short”.
